# Results reported in US8921358B2, “Apoptosis signal-regulating kinase 1 inhibitors” (Takeda Pharmaceutical Company Limited, priority 2008, dated 2014).
# pIC50: −log10 of the molar value.
# Biological target: T1, human ASK1 (Homo sapiens, UniProt Q99683)
# T1 construct: a 2.2 kb DNA fragment containing an ASK1 gene was recovered from the gel; made in house; host or cells: Sf-21 insect cells, recombinant baculovirus (pFASTBAC1, Bac-to-Bac)
# T1 sequence (Q99683 649-1374 limits assumed): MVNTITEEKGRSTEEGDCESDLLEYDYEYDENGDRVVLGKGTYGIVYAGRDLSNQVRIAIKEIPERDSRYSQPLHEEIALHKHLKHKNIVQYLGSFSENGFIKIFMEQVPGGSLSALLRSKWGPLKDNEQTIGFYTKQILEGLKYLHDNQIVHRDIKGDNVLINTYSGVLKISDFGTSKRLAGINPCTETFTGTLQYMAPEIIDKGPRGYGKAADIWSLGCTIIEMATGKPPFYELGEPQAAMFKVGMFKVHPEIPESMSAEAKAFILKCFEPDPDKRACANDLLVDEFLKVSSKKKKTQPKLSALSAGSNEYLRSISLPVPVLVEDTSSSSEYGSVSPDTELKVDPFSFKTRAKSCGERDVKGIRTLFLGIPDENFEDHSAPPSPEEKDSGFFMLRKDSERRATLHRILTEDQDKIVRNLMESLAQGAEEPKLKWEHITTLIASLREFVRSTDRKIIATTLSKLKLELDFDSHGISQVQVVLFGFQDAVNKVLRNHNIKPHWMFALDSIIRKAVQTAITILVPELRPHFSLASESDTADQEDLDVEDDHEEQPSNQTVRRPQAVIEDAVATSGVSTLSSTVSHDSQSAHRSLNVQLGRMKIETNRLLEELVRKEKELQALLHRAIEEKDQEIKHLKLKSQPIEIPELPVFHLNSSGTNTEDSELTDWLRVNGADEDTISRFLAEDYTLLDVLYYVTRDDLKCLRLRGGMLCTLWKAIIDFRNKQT
# Test: Scintillation assay measuring inhibition of ASK1 phosphorylation of myelin basic protein
# Type: biochemical
# Settings: active ASK1 protein 30 ng, myelin basic protein 1 μg, [γ-32P]ATP, room temperature 30 min; values given as ranges; read-out: Enzyme Activity IC50
# Procedure: Cloning of cDNA encoding human ASK1 was conducted by PCR using primers, 5′-[…] AGAGAAGGGGA-3′ (SEQ ID NO: 1) and 5′-[…]-3′ (SEQ ID NO: 2), from human heart cDNA library (Becton, Dickinson and Company). The PCR product was subjected to agarose gel (1%) electrophoresis, a 2.2 kb DNA fragment containing an ASK1 gene was recovered from the gel, and then digested with restriction enzymes, NotI and SalI, and inserted into a plasmid pFASTBAC1 (Invitrogen) to prepare a plasmid pFB-ASK1. The insert was verified by sequencing. Recombinant baculovirus was prepared according to the procedure of the Bac-to-Bac baculovirus expression system (Invitrogen).
# Sf-21 cells were seeded to achieve 1×10^6 cells/mL in 100 mL of Sf-900 II SFM medium (Invitrogen) which contains 10% fetal calf serum and then cultured at 27° C. for 24 hrs. To express ASK1 in cells, 0.15 mL of the recombinant baculovirus virus stock was added to cells, and the then cultured for 60 hrs. The cells were separated from the culture solution by centrifugation at 3000 rpm for 10 min and washed once with PBS. The cells were suspended in 10 mL of lysis buffer (25 mM HEPES (pH 7.5), 1% Triton X, 130 mM NaCl, 1 mM EDTA, 1 mM DTT, 25 mM β-glycerophosphate, Protease inhibitor complete (Roche), 1 mM sodium orthovanadate) and ruptured by four times of treatment with a homogenizer (POLYTRON) at 20000 rpm for 30 seconds. Active ASK1 protein was purified from a supernatant obtained by centrifugal separation at 40000 rpm for 45 min using anti-FLAG M2 Affinity Gel (Sigma).
# The test compounds (2.5 μl) dissolved in DMSO were added to wells containing 37.5 μl of the reaction solution (25 mM HEPES (pH 7.5), 10 mM magnesium acetate, 1 mM DTT) including 30 ng of active ASK1 protein and 1 μg of myelin basic protein (Wako), and incubated at room temperature for 5 min. To start the reaction, 10 μL of ATP solution (2.5 μM ATP, 0.1 μCi [γ-^32P]ATP) was added to wells. After incubating at room temperature for 30 min, the reaction was terminated by adding 50 μl of 20% TCA solution. The reaction solution was incubated at 4° C. for 30 min and an acid-insoluble fraction was transferred onto a GF/C filter (Packard) with Cell Harvester (Packard), and washed with 250 mM phosphoric acid. After drying at 45° C. for 60 min., 40 μL of Microscint 0 (Packard) was added and the radioactivity was measured with TopCount (Packard). The concentrations (IC50 value) of the test compounds necessary for 50% inhibition of kinase activity were calculated by PRISM 3.0 (Graphpad Software).
# The enzyme activities of selected compounds of the present invention against ASK1 were determined using the assay disclosed in Example A and B. The resulted pIC50 values are reported in Table 1.
row,pIC50,SMILES
1,< 6.00,"CC(=O)c1cccc(-c2cc(NC(=O)c3ccc(C(C)(C)C)cc3)nc3ccnn23)c1 [Compound 12, N-(7-(3-Acetylphenyl)pyrazolo[1,5-a]pyrimidin-5-yl)-4-tert-butylbenzamide]"
2,6.00 to 7.00,"CC(C)(O)c1ccc(C(=O)Nc2cc(-c3ccc(C(N)=O)cc3)n3nccc3n2)cc1 [Compound 22, N-(7-(4-carbamoylphenyl)pyrazolo[1,5-a]pyrimidin-5-yl)-4-(2-hydroxypropan-2-yl)benzamide]"
3,6.00 to 7.00,"Cc1cc2nc(NC(=O)c3ccc(C(C)(C)O)nc3)cc(-c3ccccc3)n2n1 [Compound 315, 6-(2-hydroxypropan-2-yl)-N-(2-methyl-7-phenylpyrazolo[1,5-a]pyrimidin-5-yl)nicotinamide]"
4,> 7.00,"CC(C)(O)c1ccc(C(=O)Nc2cc(N3CCOCC3)n3nccc3n2)cc1 [Compound 72, 4-(2-hydroxypropan-2-yl)-N-(7-morpholinopyrazolo[1,5-a]pyrimidin-5-yl)benzamide]"
5,> 7.00,"CC(C)(O)c1ccc(C(=O)Nc2cc(N3CCC(CCO)CC3)n3nccc3n2)cc1 [Compound 71, N-(7-(4-(2-hydroxyethyl)piperidin-1-yl)pyrazolo[1,5-a]pyrimidin-5-yl)-4-(2-hydroxypropan-2-yl)benzamide]"
6,< 6.00,"Cc1cc2nc(NC(=O)c3ccc(C(C)(C)CO)cc3)cc(N(C)CCc3ccccc3)n2n1 [Compound 127, 4-(1-hydroxy-2-methylpropan-2-yl)-N-(2-methyl-7-(methyl(phenethyl)amino)pyrazolo[1,5-a]pyrimidin-5-yl)benzamide]"
7,> 7.00,"CSc1ccc(-c2cc(NC(=O)c3ccc(C(C)(C)O)cc3)nc3ccnn23)cc1 [Compound 23, 4-(2-hydroxypropan-2-yl)-N-(7-(4-(methylthio)phenyl)pyrazolo[1,5-a]pyrimidin-5-yl)benzamide]"
8,> 7.00,"CC(C)(O)c1ccc(C(=O)Nc2cc(N3CCc4ccccc4C3)n3nccc3n2)cc1 [Compound 64, N-(7-(3,4-dihydroisoquinolin-2(1H)-yl)pyrazolo[1,5-a]pyrimidin-5-yl)-4-(2-hydroxypropan-2-yl)benzamide]"
9,> 7.00,"Cc1cc2nc(NC(=O)c3ccc(C(C)(C)O)cc3)cc(-c3ccccc3)n2n1 [Compound 202, 4-(2-hydroxypropan-2-yl)-N-(2-methyl-7-phenylpyrazolo[1,5-a]pyrimidin-5-yl)benzamide]"
10,6.00 to 7.00,"CC(C)(O)c1ccc(C(=O)Nc2cc(-c3ccoc3)n3nccc3n2)cc1 [Compound 18, N-(7-(Furan-3-yl)pyrazolo[1,5-a]pyrimidin-5-yl)-4-(2-hydroxypropan-2-yl)benzamide]"
11,6.00 to 7.00,"CC(C)(O)c1ccc(C(=O)Nc2cc(N3CCc4[nH]ncc4C3)n3nccc3n2)cc1 [Compound 79, N-(7-(6,7-dihydro-1H-pyrazolo[4,3-c]pyridin-5(4H)-yl)pyrazolo[1,5-a]pyrimidin-5-yl)-4-(2-hydroxypropan-2-yl)benzamide]"
12,> 7.00,"CC(C)(C)c1ccc(C(=O)Nc2cc(N3CCCC(O)C3)n3nccc3n2)cc1 (stereo not drawn) [Compound 113, 4-tert-butyl-N-(7-(3-hydroxypiperidin-1-yl)pyrazolo[1,5-a]pyrimidin-5-yl)benzamide]"
13,> 7.00,"CC(C)(O)c1ccc(C(=O)Nc2cc(N3CCc4nc[nH]c(=O)c4C3)n3nccc3n2)cc1 [Compound 89, 4-(2-hydroxypropan-2-yl)-N-(7-(4-oxo-3,4,7,8-tetrahydropyrido[4,3-d]pyrimidin-6(5H)-yl)pyrazolo[1,5-a]pyrimidin-5-yl)benzamide]"
14,> 7.00,"Cc1cc2nc(NC(=O)c3ccc(C(C)(C)O)cc3)cc(N3CC[C@@H](O)C3)n2n1 [Compound 203, (R)-4-(2-hydroxypropan-2-yl)-N-(7-(3-hydroxypyrrolidin-1-yl)-2-methylpyrazolo[1,5-a]pyrimidin-5-yl)benzamide]"
15,> 7.00,"CC(C)(C)c1ccc(C(=O)Nc2cc(N3CCC[C@@H](O)C3)n3nccc3n2)cc1 [Compound 77, (R)-4-tert-butyl-N-(7-(3-hydroxypiperidin-1-yl)pyrazolo[1,5-a]pyrimidin-5-yl)benzamide]"
